Results on 1 compound are retold here after ChEMBL document CHEMBL4346710, “Discovery of 7H-pyrrolo[2,3-d]pyrimidine derivatives as selective covalent irreversible inhibitors of interleukin-2-inducible T-cell kinase (Itk)” (Eur J Med Chem, 2019).

As usually defined, the IC50 is the concentration at which inhibition is half-maximal. As usually defined, the GI50 is the concentration that inhibits growth by half.

Calls of active or inactive are those of the source. The calls are words filed in the database; no cut-off is given here.

In assay [1] the target is Epidermal growth factor receptor (Homo sapiens, UniProt P00533). Put plainly: Inhibition of recombinant human N-terminal GST-tagged EGFR kinase domain (696 to end residues) expressed in baculovirus infected Sf21 insect cells using STK as substrate by HTRF assay. In general terms: Time-resolved FRET reads energy transfer from a long-lived donor to a nearby acceptor.
Assay [2] concerns CCRF-CEM. Put plainly: Induction of apoptosis in human CCRF-CEM cells assessed as downregulation of PARP at 1 to 5 uM incubated for 24 hrs by Western blot analysis. In kind it is functional, cell-based.
The test system of assay [3] is CCRF-CEM. Kind of assay: Growth inhibition of human CCRF-CEM cells incubated for 72 hrs by CellTiter-Glo luminescent cell viability assay. It is filed as functional.
A further assay is filed under the species Homo sapiens. Kind of assay: Selectivity ratio of IC50 for recombinant human full-length N-terminal His6-tagged BTK expressed in baculovirus infected Sf21 insect cells to IC50 for recombinant human N-terminal His6-tagged ITK (352 to 617 residues) expressed in baculovirus infected Sf21 insect cells.
Assay [4] deals with Calcium/calmodulin-dependent protein kinase type IV (Homo sapiens) (UniProt Q16566). Put plainly: Inhibition of recombinant human full length GST-tagged CAMK4 expressed in Escherichia coli expression system assessed as enzyme residual activity at 0.4 uM using fluorophore-labeled serine/threonine-13 peptide as substrate incubated for 60 mins by Z'-LYTE assay relative to control.

Assay [5] addresses Mitogen-activated protein kinase 3 (Homo sapiens) (UniProt P27361). Put plainly: Inhibition of recombinant full length human GST-tagged ERK1 expressed in Escherichia coli assessed as enzyme residual activity at 0.4 uM using fluorophore-labeled serine/threonine-3 peptide as substrate incubated for 60 mins by Z'-LYTE assay relative to control.
In assay [6] the target is Serine/threonine-protein kinase Sgk1 (Homo sapiens) (UniProt O00141). Kind of assay: Inhibition of recombinant human GST-tagged SGK1 catalytic domain (60 to 431 residues) expressed in baculovirus expression system assessed as enzyme residual activity at 0.4 uM using fluorophore-labeled serine/threonine-6 peptide as substrate incubated for 60 mins by Z'-LYTE assay relative to control.

Assay [7] deals with Rho-associated protein kinase 2 (Homo sapiens) (UniProt O75116). Put plainly: Inhibition of recombinant human N-terminal GST-tagged ROCK2 catalytic domain (1 to 552 residues) expressed in baculovirus expression system assessed as enzyme residual activity at 0.4 uM using fluorophore-labeled serine/threonine-13 peptide as substrate incubated for 60 mins by Z'-LYTE assay relative to control.

Assay [8] addresses RAC-alpha serine/threonine-protein kinase (Homo sapiens) (UniProt P31749). Put plainly: Inhibition of recombinant full length human His-tagged AKT1 expressed in baculovirus expression system assessed as enzyme residual activity at 0.4 uM using fluorophore-labeled serine/threonine-06 peptide as substrate incubated for 60 mins by Z'-LYTE assay relative to control.
In assay [9] the target is Tyrosine-protein kinase ZAP-70 (Homo sapiens) (UniProt P43403). Kind of assay: Inhibition of recombinant full length human His-tagged ZAP70 cytoplasmic domain expressed in baculovirus expression system assessed as enzyme residual activity at 0.4 uM using fluorophore-labeled tyrosine-07 peptide as substrate incubated for 60 mins by Z'-LYTE assay relative to control.
Assay [10] deals with cAMP-dependent protein kinase catalytic subunit alpha (Homo sapiens) (UniProt P17612). Kind of assay: Inhibition of recombinant human His-tagged PRKACA catalytic domain (1 to 351 residues) expressed in Escherichia coli assessed as enzyme residual activity at 0.4 uM using fluorophore-labeled serine/threonine-1 peptide as substrate incubated for 60 mins by Z'-LYTE assay relative to control.

The target of assay [11] is Insulin-like growth factor 1 receptor (Homo sapiens) (UniProt P08069). Put plainly: Inhibition of recombinant human His-tagged IGF1R cytoplasmic domain ([…]) expressed in baculovirus expression system assessed as enzyme residual activity at 0.4 uM using fluorophore-labeled tyrosine-1 peptide as substrate incubated for 60 mins by Z'-LYTE assay relative to control.

Assay [12] concerns the target Serine/threonine-protein kinase Chk2 (Homo sapiens) (UniProt O96017). Kind of assay: Inhibition of recombinant full length human His-tagged CHEK2 expressed in baculovirus expression system assessed as enzyme residual activity at 0.4 uM using fluorophore-labeled serine/threonine-07 peptide as substrate incubated for 60 mins by Z'-LYTE assay relative to control.
Assay [13] in a line: Inhibition of tracer 236 binding to recombinant full length human C-terminal His-tagged AMPK alpha2/beta2/gamma1 expressed in baculovirus infected Sf9 cells assessed as enzyme residual activity at 0.4 uM incubated for 60 mins by Lanthascreen assay relative to control.
In assay [14] the target is Glycogen synthase kinase-3 alpha (Homo sapiens) (UniProt P49840). Put plainly: Inhibition of recombinant full length human His-tagged GSK3alpha expressed in baculovirus expression system assessed as enzyme residual activity at 0.4 uM using fluorophore-labeled serine/threonine-9 peptide as substrate incubated for 60 mins by Z'-LYTE assay relative to control.
Assay [15] addresses Tyrosine-protein kinase Fyn (Homo sapiens) (UniProt P06241). Kind of assay: Inhibition of recombinant full length C-terminal His-tagged human FYN cytoplasmic domain expressed in baculovirus expression system assessed as enzyme residual activity at 0.4 uM using fluorophore-labeled tyrosine-2 peptide as substrate by Z'-Lyte assay relative to control.
Assay [16] has as its target Interleukin-1 receptor-associated kinase 4 (Homo sapiens) (UniProt Q9NWZ3). Put plainly: Inhibition of recombinant human His-tagged IRAK4 expressed in baculovirus expression system assessed as enzyme residual activity at 0.4 uM using fluorophore-labeled serine/threonine-7 peptide as substrate incubated for 60 mins by Z'-LYTE assay relative to control.
Assay [17] has as its target Tyrosine-protein kinase JAK3 (Homo sapiens) (UniProt P52333). Kind of assay: Inhibition of recombinant human GST-tagged JAK3 catalytic domain (781 to 1124 residues) expressed in baculovirus expression system assessed as enzyme residual activity at 0.4 uM using fluorophore-labeled tyrosine-6 peptide as substrate incubated for 60 mins by Z'-LYTE assay relative to control.

In assay [18] the target is Tyrosine-protein kinase ABL1 (Homo sapiens) (UniProt P00519). Kind of assay: Inhibition of recombinant full length human His-tagged ABL1 cytoplasmic domain expressed in baculovirus expression system assessed as enzyme residual activity at 0.4 uM using fluorophore-labeled tyrosine-2 peptide as substrate incubated for 60 mins by Z'-LYTE assay relative to control.
For a further assay, the target named is TAK1/TAB1 (Homo sapiens) (UniProt Q15750+O43318). Put plainly: Inhibition of tracer 222 binding to recombinant full-length human His-tagged MAP3K7/MAP3K7IP1 (437 to 504 residues) expressed in baculovirus expression system assessed as enzyme residual activity at 0.4 uM incubated for 60 mins by Lanthascreen assay relative to control.
For another assay, the system named is Jurkat. Put plainly: Growth inhibition of human Jurkat cells incubated for 72 hrs by CellTiter-Glo luminescent cell viability assay. In kind it is functional. In general terms: ATP-based viability assays read luminescence as a measure of living cells.
In assay [19] the test system is MOLT-4. Kind of assay: Induction of apoptosis in human MOLT4 cells assessed as downregulation of caspase3 at 1 to 20 uM incubated for 24 hrs by Western blot analysis. It is filed as functional, cell-based. In general terms: In western blotting, separated proteins are transferred to a membrane and probed.
For assay [20], the system named is MOLT-4. Kind of assay: Induction of apoptosis in human MOLT4 cells assessed as upregulation of cleaved PARP at 1 to 20 uM incubated for 24 hrs by Western blot analysis. In kind it is functional, cell-based.
Assay [21] addresses Tyrosine-protein kinase Lck (Homo sapiens, UniProt P06239). Put plainly: Inhibition of recombinant full length human C-terminal His-tagged LCK cytoplasmic domain expressed in baculovirus expression system using fluorophore-labeled tyrosine-2 peptide as substrate incubated for 60 mins by Z'-LYTE assay.

Tyrosine-protein kinase Fyn (Homo sapiens), sequence (P06241 2-537 limits assumed): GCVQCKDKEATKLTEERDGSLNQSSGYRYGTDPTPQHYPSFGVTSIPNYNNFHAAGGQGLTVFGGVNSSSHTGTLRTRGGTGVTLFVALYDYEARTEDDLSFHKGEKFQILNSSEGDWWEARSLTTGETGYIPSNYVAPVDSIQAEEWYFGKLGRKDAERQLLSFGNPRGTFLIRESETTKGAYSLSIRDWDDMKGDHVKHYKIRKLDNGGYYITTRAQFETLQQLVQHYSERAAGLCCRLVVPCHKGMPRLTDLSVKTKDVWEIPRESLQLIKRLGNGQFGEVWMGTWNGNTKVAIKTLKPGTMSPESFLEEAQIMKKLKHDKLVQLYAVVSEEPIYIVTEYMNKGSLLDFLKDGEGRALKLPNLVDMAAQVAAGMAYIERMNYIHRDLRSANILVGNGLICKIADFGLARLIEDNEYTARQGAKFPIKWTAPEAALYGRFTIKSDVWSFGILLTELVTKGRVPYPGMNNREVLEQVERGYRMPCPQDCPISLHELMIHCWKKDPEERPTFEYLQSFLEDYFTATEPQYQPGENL
Interleukin-1 receptor-associated kinase 4 (Homo sapiens), sequence (Q9NWZ3 whole entry, the tested form may be a part): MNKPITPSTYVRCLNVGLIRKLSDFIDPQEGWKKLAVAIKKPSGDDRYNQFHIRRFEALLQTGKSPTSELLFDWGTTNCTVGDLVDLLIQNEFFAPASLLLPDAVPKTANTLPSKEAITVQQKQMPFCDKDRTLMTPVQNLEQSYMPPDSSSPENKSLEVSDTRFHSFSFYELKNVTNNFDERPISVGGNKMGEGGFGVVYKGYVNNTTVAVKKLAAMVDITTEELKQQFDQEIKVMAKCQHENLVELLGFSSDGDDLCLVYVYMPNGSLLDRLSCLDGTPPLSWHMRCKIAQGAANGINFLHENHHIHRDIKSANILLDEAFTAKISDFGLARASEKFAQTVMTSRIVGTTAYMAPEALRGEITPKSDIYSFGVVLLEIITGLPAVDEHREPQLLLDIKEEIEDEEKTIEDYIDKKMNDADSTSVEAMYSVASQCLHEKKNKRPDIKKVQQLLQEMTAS
Epidermal growth factor receptor, sequence (P00533 whole entry, the tested form may be a part): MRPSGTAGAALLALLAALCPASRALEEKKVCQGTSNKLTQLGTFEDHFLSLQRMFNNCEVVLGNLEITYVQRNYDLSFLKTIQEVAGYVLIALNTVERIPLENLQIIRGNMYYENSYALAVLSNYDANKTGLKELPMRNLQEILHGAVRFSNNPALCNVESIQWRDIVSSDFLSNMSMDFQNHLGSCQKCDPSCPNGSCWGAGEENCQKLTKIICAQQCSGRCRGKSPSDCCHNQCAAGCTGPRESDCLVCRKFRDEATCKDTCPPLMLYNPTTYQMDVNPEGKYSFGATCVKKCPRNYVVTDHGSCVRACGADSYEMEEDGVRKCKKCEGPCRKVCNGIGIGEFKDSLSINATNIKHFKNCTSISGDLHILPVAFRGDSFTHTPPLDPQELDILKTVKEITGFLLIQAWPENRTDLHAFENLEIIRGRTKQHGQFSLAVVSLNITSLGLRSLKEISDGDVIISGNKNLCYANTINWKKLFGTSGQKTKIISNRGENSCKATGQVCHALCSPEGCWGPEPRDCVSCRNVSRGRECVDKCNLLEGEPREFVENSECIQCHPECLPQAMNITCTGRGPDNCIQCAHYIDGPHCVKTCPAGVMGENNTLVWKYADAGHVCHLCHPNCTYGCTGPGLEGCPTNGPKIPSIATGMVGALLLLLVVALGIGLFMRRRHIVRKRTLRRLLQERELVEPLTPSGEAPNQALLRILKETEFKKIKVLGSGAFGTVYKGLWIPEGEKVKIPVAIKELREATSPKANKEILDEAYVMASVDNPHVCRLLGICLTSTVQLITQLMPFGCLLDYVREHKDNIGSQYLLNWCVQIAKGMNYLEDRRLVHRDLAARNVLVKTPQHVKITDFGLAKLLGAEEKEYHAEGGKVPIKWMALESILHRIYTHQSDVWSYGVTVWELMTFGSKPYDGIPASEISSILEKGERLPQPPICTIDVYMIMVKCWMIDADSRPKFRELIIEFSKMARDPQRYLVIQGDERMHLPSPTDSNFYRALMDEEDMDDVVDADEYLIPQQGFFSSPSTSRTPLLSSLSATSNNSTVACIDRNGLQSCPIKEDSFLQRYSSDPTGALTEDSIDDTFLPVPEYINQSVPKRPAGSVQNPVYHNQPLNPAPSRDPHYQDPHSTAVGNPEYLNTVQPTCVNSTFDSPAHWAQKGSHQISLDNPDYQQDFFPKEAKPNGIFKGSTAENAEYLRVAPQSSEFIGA
Tyrosine-protein kinase ZAP-70 (Homo sapiens), sequence (P43403 whole entry, the tested form may be a part): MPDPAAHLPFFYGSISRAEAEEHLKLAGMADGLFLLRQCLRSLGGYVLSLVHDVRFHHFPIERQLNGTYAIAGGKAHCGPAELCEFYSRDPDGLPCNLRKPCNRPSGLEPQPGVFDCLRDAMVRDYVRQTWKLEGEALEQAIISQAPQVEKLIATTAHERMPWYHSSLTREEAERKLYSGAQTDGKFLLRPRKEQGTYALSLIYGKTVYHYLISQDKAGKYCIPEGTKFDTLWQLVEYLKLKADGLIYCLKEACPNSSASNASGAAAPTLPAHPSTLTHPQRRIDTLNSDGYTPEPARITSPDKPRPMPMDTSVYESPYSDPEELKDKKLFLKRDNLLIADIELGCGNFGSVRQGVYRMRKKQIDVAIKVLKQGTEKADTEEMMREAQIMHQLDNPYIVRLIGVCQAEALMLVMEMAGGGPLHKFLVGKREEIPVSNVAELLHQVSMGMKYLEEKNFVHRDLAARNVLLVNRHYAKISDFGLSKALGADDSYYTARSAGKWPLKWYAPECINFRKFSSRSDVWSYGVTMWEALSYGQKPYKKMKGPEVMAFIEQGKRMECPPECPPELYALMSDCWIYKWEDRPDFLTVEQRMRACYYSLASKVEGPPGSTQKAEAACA
Serine/threonine-protein kinase Sgk1 (Homo sapiens), sequence (O00141 whole entry, the tested form may be a part): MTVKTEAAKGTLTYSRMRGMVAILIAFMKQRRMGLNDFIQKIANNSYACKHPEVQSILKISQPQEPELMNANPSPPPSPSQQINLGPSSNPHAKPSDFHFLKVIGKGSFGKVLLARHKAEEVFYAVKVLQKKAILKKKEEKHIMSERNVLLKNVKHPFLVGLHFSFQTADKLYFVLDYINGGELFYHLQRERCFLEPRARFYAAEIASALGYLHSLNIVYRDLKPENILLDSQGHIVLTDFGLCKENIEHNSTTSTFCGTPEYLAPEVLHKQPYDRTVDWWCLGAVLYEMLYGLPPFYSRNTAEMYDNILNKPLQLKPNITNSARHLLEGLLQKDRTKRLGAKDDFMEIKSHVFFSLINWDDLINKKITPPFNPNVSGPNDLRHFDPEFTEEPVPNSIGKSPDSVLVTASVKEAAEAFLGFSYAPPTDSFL
Mitogen-activated protein kinase 3 (Homo sapiens), sequence (P27361 whole entry, the tested form may be a part): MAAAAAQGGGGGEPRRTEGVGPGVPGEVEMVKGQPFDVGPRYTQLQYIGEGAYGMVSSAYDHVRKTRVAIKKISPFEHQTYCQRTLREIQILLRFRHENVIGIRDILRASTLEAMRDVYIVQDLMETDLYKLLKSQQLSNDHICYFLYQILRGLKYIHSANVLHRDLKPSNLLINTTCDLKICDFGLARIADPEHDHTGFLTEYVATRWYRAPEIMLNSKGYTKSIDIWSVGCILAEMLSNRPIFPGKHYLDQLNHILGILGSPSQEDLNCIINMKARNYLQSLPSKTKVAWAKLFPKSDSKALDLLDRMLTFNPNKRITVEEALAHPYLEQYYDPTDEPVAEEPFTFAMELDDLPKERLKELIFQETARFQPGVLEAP
Tyrosine-protein kinase JAK3 (Homo sapiens), sequence (P52333 whole entry, the tested form may be a part): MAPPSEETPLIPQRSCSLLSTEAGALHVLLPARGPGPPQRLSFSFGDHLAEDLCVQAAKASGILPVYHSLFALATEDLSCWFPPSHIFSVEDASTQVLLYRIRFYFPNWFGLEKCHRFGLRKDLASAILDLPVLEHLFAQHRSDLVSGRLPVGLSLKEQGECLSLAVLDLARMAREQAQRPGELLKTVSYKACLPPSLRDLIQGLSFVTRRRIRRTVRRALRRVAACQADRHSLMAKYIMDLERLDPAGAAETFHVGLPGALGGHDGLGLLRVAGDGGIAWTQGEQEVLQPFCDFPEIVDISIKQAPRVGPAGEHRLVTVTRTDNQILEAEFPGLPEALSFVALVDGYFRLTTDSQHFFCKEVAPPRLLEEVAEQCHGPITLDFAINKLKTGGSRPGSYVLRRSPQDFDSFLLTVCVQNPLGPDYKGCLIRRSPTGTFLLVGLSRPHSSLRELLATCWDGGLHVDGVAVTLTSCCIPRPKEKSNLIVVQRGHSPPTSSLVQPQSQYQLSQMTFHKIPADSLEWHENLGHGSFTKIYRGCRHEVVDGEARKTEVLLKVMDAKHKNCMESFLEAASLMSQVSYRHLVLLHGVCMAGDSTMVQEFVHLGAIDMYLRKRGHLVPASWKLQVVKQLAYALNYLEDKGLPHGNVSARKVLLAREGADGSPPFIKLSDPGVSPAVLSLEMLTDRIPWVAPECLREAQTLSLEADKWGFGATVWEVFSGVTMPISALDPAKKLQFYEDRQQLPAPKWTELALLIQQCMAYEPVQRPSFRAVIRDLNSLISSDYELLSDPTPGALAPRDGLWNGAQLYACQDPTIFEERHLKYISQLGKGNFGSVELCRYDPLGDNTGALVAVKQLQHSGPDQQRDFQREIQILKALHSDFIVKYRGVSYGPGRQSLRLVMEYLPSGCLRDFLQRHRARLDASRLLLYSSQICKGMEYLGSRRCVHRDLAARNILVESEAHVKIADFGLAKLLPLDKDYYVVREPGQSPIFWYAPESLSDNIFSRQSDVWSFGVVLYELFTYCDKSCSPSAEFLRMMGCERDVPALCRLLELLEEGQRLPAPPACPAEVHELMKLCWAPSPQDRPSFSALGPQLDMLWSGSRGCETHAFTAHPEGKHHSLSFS

Take `C=CC(=O)N1CCC(Oc2nc(Nc3ccc(N4CCOCC4)cc3)nc3[nH]cc(-c4cncc(NC)n4)c23)CC1`: the IC50 in [1] was found to be 1260 nM; in assay [21], 74 nM. For the same compound, the outcome with CCRF-CEM [2], in the assay on MOLT-4 [19] and in the assay on MOLT-4 [20] was Active. Besides, the GI50 in the assay with CCRF-CEM [3] turned out to be 127 nM; in the assay with Jurkat, 184 nM. Further, the Ratio IC50 in the assay listed under Homo sapiens came to 250. For the same compound, the Activity in assay [4] was 107%; in assay [5], 98.7%; in assay [6] it was 97%; in assay [7], 96.3%; in [8], 96%; in assay [9] it was 95%. Moreover, the Activity amounted to 86% in assay [10]; 84% in assay [11]; 78.7% in [12]; 64.3% in assay [13]; 29.3% in [14]; 21% in [15]. Further, the Activity was 19.3% in [16], 16.3% in assay [17], 11.7% in assay [18] and 0% at TAK1/TAB1 (Homo sapiens).
